≈ marks a conversion by molar mass, not a printed value. Calls of active or inactive are those of the source. No cut-off for these calls is given here.
How the values were obtained:
[1] = system: HEK293; assay: (§1) Cytotoxicity against HEK293 cells measured after 20 hrs by resazurin dye based fluorescence assay; type: cell-based, Homo sapiens; details: Homo sapiens, HEK293, 20 h
[2] = system: Staphylococcus aureus; assay: Induction of membrane depolarization in Staphylococcus aureus ATCC 25923 measured after 15 mins by DiSC3(5) dye based spectrofluorometric method; type: functional, organism-based
[3] = system: Acinetobacter baumannii; assay: Antibacterial activity against Acinetobacter baumannii ATCC 19606 measured after 18 hrs by resazurin dye based assay; type: functional; details: ATCC 19606 = CIP 70.34 = JCM 6841, 18 h
[4] = system: Escherichia coli; assay: Potentiation of nalidixic acid-induced antibacterial activity against Escherichia coli ATCC 25922 assessed as concentration required to restore 2 ug/ml nalidixic acid activity measured after 18 hrs; type: functional
[5] = system: Klebsiella pneumoniae; assay: Antibacterial activity against Klebsiella pneumoniae ATCC 700603 measured after 18 hrs by resazurin dye based assay; type: functional; details: Klebsiella pneumoniae, 700603, 18 h
[6] = system: Pseudomonas aeruginosa; assay: Potentiation of nalidixic acid-induced antibacterial activity against Pseudomonas aeruginosa ATCC 27853 assessed as concentration required to restore 2 ug/ml nalidixic acid activity measured after 18 hrs; type: functional
[7] = system: Klebsiella pneumoniae; assay: Potentiation of nalidixic acid-induced antibacterial activity against Klebsiella pneumoniae ATCC 700603 assessed as concentration required to restore 2 ug/ml nalidixic acid activity measured after 18 hrs; type: functional
[8] = system: Pseudomonas aeruginosa; assay: Antibacterial activity against Pseudomonas aeruginosa ATCC 27853 measured after 18 hrs by broth dilution method; type: functional; details: ATCC 27853, 18 h
[9] = system: Escherichia coli; assay: Antibacterial activity against Escherichia coli ATCC 25922 measured after 18 hrs by broth dilution method; type: functional; details: ATCC 25922, 18 h
[10] = system: Acinetobacter baumannii; assay: Potentiation of nalidixic acid-induced antibacterial activity against Acinetobacter baumannii ATCC 19606 assessed as concentration required to restore 2 ug/ml nalidixic acid activity measured after 18 hrs; type: functional, ATCC 19606 = CIP 70.34 = JCM 6841
[11] = system: Pseudomonas aeruginosa; assay: Disruption of membrane integrity in Pseudomonas aeruginosa PAO1 assessed as increase in extracellular ATP level at 10 uL by luciferin-luciferase reagent based luminescence assay; type: functional, organism-based
[12] = system: Pseudomonas aeruginosa; assay: Disruption of membrane integrity in Pseudomonas aeruginosa PAO1 assessed as decrease in intracellular ATP level at 1% by luciferin-luciferase reagent based luminescence assay relative to control; type: functional, organism-based; set-up: scale not given: the % may be the effect or the level left
[13] = system: Staphylococcus aureus; assay: Disruption of membrane integrity in Staphylococcus aureus ATCC 25923 assessed as increase in extracellular ATP level at 10 uL by luciferin-luciferase reagent based luminescence assay; type: functional, organism-based
[14] = system: Klebsiella pneumoniae; assay: Potentiation of chloramphenicol-induced antibacterial activity against Klebsiella pneumoniae ATCC 700603 assessed as concentration required to restore 2 ug/ml chloramphenicol activity measured after 18 hrs; type: functional
[15] = system: Staphylococcus intermedius; assay: Antibacterial activity against Staphylococcus intermedius 1051997 measured after 18 hrs by broth dilution method; type: functional; details: Staphylococcus intermedius, 1051997, 18 h
[16] = system: Staphylococcus aureus; assay: Antibacterial activity against Staphylococcus aureus ATCC 25923 measured after 18 hrs by broth dilution method; type: functional; details: ATCC 25923, 18 h
[17] = system: Escherichia coli; assay: Potentiation of chloramphenicol-induced antibacterial activity against Escherichia coli ATCC 25922 assessed as concentration required to restore 2 ug/ml chloramphenicol activity measured after 18 hrs; type: functional
[18] = system: Acinetobacter baumannii; assay: Potentiation of chloramphenicol-induced antibacterial activity against Acinetobacter baumannii ATCC 19606 assessed as concentration required to restore 2 ug/ml chloramphenicol activity measured after 18 hrs; type: functional, ATCC 19606 = CIP 70.34 = JCM 6841
[19] = system: Pseudomonas aeruginosa; assay: Potentiation of chloramphenicol-induced antibacterial activity against Pseudomonas aeruginosa ATCC 27853 assessed as concentration required to restore 2 ug/ml chloramphenicol activity measured after 18 hrs; type: functional
[20] = system: Erythrocyte; assay: Hemolytic activity against human RBC at 32 ug/ml incubated for 10 mins under shaking condition measured after 1 hr; type: ADME, cell-based
[21] = system: L6; assay: Cytotoxicity against rat L6 cells measured after 72 hrs by alamar blue assay; type: cell-based; details: L6, 72 h
[22] = system: Cryptococcus neoformans; assay: Antifungal activity against Cryptococcus neoformans ATCC 208821 measured after 36 hrs by resazurin dye based assay; type: functional; details: ATCC 208821, 36 h
[23] = system: Candida albicans; assay: Antifungal activity against Candida albicans ATCC 90028 measured after 36 hrs; type: functional; details: ATCC 90028, 36 h
[24] = system: Pseudomonas aeruginosa; assay: Potentiation of doxycycline-induced antibacterial activity against Pseudomonas aeruginosa ATCC 27853 assessed as concentration required to restore 2 ug/ml doxycycline activity measured after 18 hrs; type: functional
[25] = system: Erythrocyte; assay: Hemolytic activity against human RBC incubated for 10 mins under shaking condition measured after 1 hr; type: ADME, cell-based
[26] = system: Acinetobacter baumannii; assay: Antibacterial activity against Acinetobacter baumannii ATCC 19606 at 32 ug/ml measured after 18 hrs by resazurin dye based assay; type: functional, organism-based; details: ATCC 19606 = CIP 70.34 = JCM 6841
[27] = system: Cryptococcus neoformans; assay: Antifungal activity against Cryptococcus neoformans ATCC 208821 at 32 ug/ml measured after 36 hrs by resazurin dye based assay; type: functional, organism-based
[28] = system: Klebsiella pneumoniae; assay: Antibacterial activity against Klebsiella pneumoniae ATCC 700603 at 32 ug/ml measured after 18 hrs by resazurin dye based assay; type: functional, organism-based
[29] = as §1; type: cell-based, Homo sapiens; details: human, HEK293 cells
[30] = system: Candida albicans; assay: Antifungal activity against Candida albicans ATCC 90028 at 32 ug/ml measured after 36 hrs; type: functional, organism-based
[31] = system: Acinetobacter baumannii; assay: Potentiation of doxycycline-induced antibacterial activity against Acinetobacter baumannii ATCC 19606 assessed as concentration required to restore 2 ug/ml doxycycline activity measured after 18 hrs; type: functional, ATCC 19606 = CIP 70.34 = JCM 6841
[32] = system: Klebsiella pneumoniae; assay: Potentiation of doxycycline-induced antibacterial activity against Klebsiella pneumoniae ATCC 700603 assessed as concentration required to restore 2 ug/ml doxycycline activity measured after 18 hrs; type: functional
[33] = system: Escherichia coli; assay: Potentiation of doxycycline-induced antibacterial activity against Escherichia coli ATCC 25922 assessed as concentration required to restore 2 ug/ml doxycycline activity measured after 18 hrs; type: functional
[34] = system: Escherichia coli; assay: Potentiation of erythromycin-induced antibacterial activity against Escherichia coli ATCC 25922 assessed as concentration required to restore 2 ug/ml erythromycin activity measured after 18 hrs; type: functional
[35] = system: Klebsiella pneumoniae; assay: Potentiation of erythromycin-induced antibacterial activity against Klebsiella pneumoniae ATCC 700603 assessed as concentration required to restore 2 ug/ml erythromycin activity measured after 18 hrs; type: functional
[36] = system: Acinetobacter baumannii; assay: Potentiation of erythromycin-induced antibacterial activity against Acinetobacter baumannii ATCC 19606 assessed as concentration required to restore 2 ug/ml erythromycin activity measured after 18 hrs; type: functional, ATCC 19606 = CIP 70.34 = JCM 6841
[37] = system: Pseudomonas aeruginosa; assay: Potentiation of erythromycin-induced antibacterial activity against Pseudomonas aeruginosa ATCC 27853 assessed as concentration required to restore 2 ug/ml erythromycin activity measured after 18 hrs; type: functional

| Compound | MIC [3] | MIC [5] | MIC [8] | MIC [9] | MIC [15] | MIC [16] | IC50 [21] | MIC [22] | MIC [23] | Activity [24] | Activity [26] | Activity [28] | CC50 at 20 h [29] | other results |
| --- | --- | --- | --- | --- | --- | --- | --- | --- | --- | --- | --- | --- | --- | --- |
| CC/C(=C(\c1ccccc1)c1ccc(OCCN(C)C)cc1)c1ccccc1 [TAMOXIFEN] |  |  |  |  |  |  |  |  |  |  |  |  |  | IC50 [1]: 24 µM |
| CC(C)[C@@H](CC[C@@H](C)[C@H]1CC[C@H]2[C@@H]3[C@H](O)C[C@H]4C[C@@H](NCCCNCCCCN)CC[C@]4(C)[C@H]3CC[C@]12C)OS(=O)(=O)O |  |  |  |  |  |  |  |  |  |  |  |  |  | Activity [2]: Dose-dependent effect |
| CCn1cc(C(=O)O)c(=O)c2ccc(C)nc21 [NALIDIXIC ACID] | > 200 µM | 100 µM (≈ 23.2 µg/mL) | > 200 µM | > 200 µM |  |  |  |  |  |  |  |  |  | Activity [4]: >200 µM; Activity [6]: 50 µM; Activity [7]: 25 µM; Activity [10]: 200 µM |
| Cetyl trimethylammonium bromide |  |  |  |  |  |  |  |  |  |  |  |  |  | Activity [11]: Active; Activity [12]: 10%; Activity [13]: Active |
| O=C(N[C@H](CO)[C@H](O)c1ccc([N+](=O)[O-])cc1)C(Cl)Cl [CHLORAMPHENICOL] | > 200 µM | 50 µM (≈ 16.2 µg/mL) | > 200 µM | > 200 µM | 3 to 6 µM (≈ 0.969 to 1.94 µg/mL) | 1.5 to 3 µM (≈ 0.485 to 0.969 µg/mL) |  |  |  |  |  |  |  | Activity [14]: 200 µM; Activity [17]: >200 µM; Activity [18]: >200 µM; Activity [19]: >200 µM |
| O=C(NCCCNCCCCCCCNCCCNC(=O)C(=O)c1c[nH]c2cc(Br)ccc12)C(=O)c1c[nH]c2cc(Br)ccc12.O=C(O)C(F)(F)F.O=C(O)C(F)(F)F | > 33 µM | > 33 µM | 51.4 µM | 51.4 µM |  | 6.4 µM | 4.4 µM | > 33 µM | 16.5 µM | 12.9 µM | inactive | inactive | 10.6 µM | Activity [20]: Non-Toxic; HC10 [25]: > 33 µM; Activity [27]: inactive |
| O=C(NCCCCNCCCNC(=O)C(=O)c1c[nH]c2cc(Br)ccc12)C(=O)c1c[nH]c2cc(Br)ccc12 | > 50 µM | > 50 µM | 50 µM (≈ 32.3 µg/mL) | > 200 µM | 3.12 µM (≈ 2.02 µg/mL) | 3.12 µM (≈ 2.02 µg/mL) | 8.7 µM | 50 µM (≈ 32.3 µg/mL) | > 50 µM | >200 µM | inactive | inactive | 2.32 µM | Activity [20]: Non-Toxic; Activity [30]: inactive; HC10 [25]: > 50 µM |
| O=C(NCCCNCCCCCCCCNCCCNC(=O)C(=O)c1c[nH]c2cc(Br)ccc12)C(=O)c1c[nH]c2cc(Br)ccc12.O=C(O)C(F)(F)F.O=C(O)C(F)(F)F | > 32.4 µM | > 32.4 µM | 6.25 µM | 50 µM | 12.5 µM | 50 µM | 5.6 µM | 32.4 µM | 8.11 µM | 25 µM | inactive | inactive | 6.2 µM | Activity [20]: Non-Toxic; HC10 [25]: > 32 µM |
| C[C@H]1c2cccc(O)c2C(=O)C2=C(O)[C@]3(O)C(=O)C(C(N)=O)=C(O)[C@@H](N(C)C)[C@@H]3[C@@H](O)[C@@H]21.O [DOXYCYCLINE] | 12.5 µM | 25 µM | 25 µM | 50 µM |  |  |  |  |  | 12.5 µM |  |  |  | Activity [31]: 25 µM; Activity [32]: 6.25 µM; Activity [33]: 6.25 µM |
| CC[C@H]1OC(=O)[C@H](C)[C@@H](O[C@H]2C[C@@](C)(OC)[C@@H](O)[C@H](C)O2)[C@H](C)[C@@H](O[C@@H]2O[C@H](C)C[C@H](N(C)C)[C@H]2O)[C@](C)(O)C[C@@H](C)C(=O)[C@H](C)[C@@H](O)[C@]1(C)O [ERYTHROMYCIN] | 200 µM (≈ 147 µg/mL) | > 200 µM | > 200 µM | > 200 µM |  |  |  |  |  |  |  |  |  | Activity [34]: 50 µM; Activity [35]: 50 µM; Activity [36]: 25 µM; Activity [37]: 200 µM |
| O=C(NCCCOCCOCCOCCCNC(=O)C(=O)c1c[nH]c2cc(Br)ccc12)C(=O)c1c[nH]c2cc(Br)ccc12 | > 44 µM | > 44 µM | > 200 µM | > 200 µM | 12.5 µM (≈ 9.01 µg/mL) | > 200 µM | 75.4 µM | > 44 µM | > 44 µM | >200 µM | inactive | inactive | > 44 µM | Activity [30]: inactive; Activity [27]: inactive |
